# Assay results as given in patent US7868006B2, “Heterocyclic substituted piperazines with CXCR3 antagonist activity” (Schering Corporation, priority 2005, dated 2011).
# Target: T1, human CXCR3 (N-delta 4) (Homo sapiens, UniProt P49682)
# T1 construct: CD8 leader (N); Flag tag (N); expressed in transfected cells; host or cells: mouse pro-B Ba/F3 cells, stably transfected with pME18Sneo-hCXCR3 (N-delta 4); membrane preparation
# T1 sequence (P49682 5-368 limits assumed): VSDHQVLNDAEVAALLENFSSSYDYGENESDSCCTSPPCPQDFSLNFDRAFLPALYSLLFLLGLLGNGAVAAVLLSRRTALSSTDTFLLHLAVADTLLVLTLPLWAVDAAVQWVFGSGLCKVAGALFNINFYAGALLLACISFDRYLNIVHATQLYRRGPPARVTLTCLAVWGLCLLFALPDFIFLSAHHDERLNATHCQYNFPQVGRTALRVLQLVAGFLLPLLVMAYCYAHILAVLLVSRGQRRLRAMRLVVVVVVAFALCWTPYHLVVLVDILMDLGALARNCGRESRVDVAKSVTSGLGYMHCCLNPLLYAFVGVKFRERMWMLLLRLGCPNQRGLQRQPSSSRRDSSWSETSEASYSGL
# Experiment: Human CXCR3 (N-delta 4) Scintillation Proximity Assay (SPA), [125I] IP-10 binding
# Details: IC50 rating; Ba/F3-hCXCR3 (N-delta 4) membranes, 25 pM [125I] IP-10; read-out: IC50
# Source text: The inventive compounds can readily be evaluated to determine activity at The CXCR3 receptors by known methods, such as, for example, Development of Human CXCR3 (N-delta 4) Binding Assay.
# Cloning and Expression of Human CXCR3 (N-delta 4):
# The DNA encoding human CXCR3 was cloned by PCR using human genomic DNA (Promega, Madison, Wis.) as a template. The PCR primers were designed based on the published sequence of human orphan receptor GPR9 (1) with incorporated restriction sites, a Kozak consensus sequence, CD8 leader and Flag tag. The PCR product was subcloned into the mammalian expression vector pME18Sneo, a derivative of the SR-alpha expression vector (designated as pME18Sneo-hCXCR3 (N-delta 4).
# IL-3-dependent mouse pro-B cells Ba/F3 were transfected by electroporation in 0.4 ml Dulbecco's PBS containing 4×10^6 cells with 20 μg of pME18Sneo-hCXCR3 (N-delta 4) plasmid DNA. Cells were pulsed at 400 Volts, 100 OHMs, 960 μFd. The transfected cells were under selection with 1 mg/ml G418 (Life Technologies, Gaithersburg, Md.). G418-resistant Ba/F3 clones were screened for CXCR3 expression by specific binding of [^125I] IP-10 (NEN Life Science Products, Boston, Mass.).
# Preparation of Ba/F3-hCXCR3 (N-delta 4) Membranes:
# Ba/F3 cells expressing human CXCR3 (N-delta 4) were pelleted and resuspended in the lysis buffer containing 10 mM HEPES, pH 7.5 and Complete® protease inhibitors (1 tablet per 100 ml) (Boehringer Mannheim, Indianapolis, Ind.) at a cell density of 20×10^6 cells per ml. After 5 minutes incubation on ice, cells were transferred to 4639 cell disruption bomb (Parr Instrument, Moline, Ill.) and applied with 1,500 psi of nitrogen for 30 minutes on ice. Large cellular debris was removed by centrifugation at 1,000×g. Cell membrane in the supernatant was sedimented at 100,000×g. The membrane was resuspended in the lysis buffer supplemented with 10% sucrose and stored at −80° C. Total protein concentration of the membrane was determined by BCA method from Pierce (Rockford, Ill.).
# Human CXCR3 (N-delta 4) Scintillation Proximity Assay (SPA):
# For each assay point, 2 μg of membrane was preincubated for 1 hr with 300 μg wheat germ agglutinin (WGA) coated SPA beads (Amersham, Arlington Heights, Ill.) in the binding buffer (50 mM HEPES, 1 mM CaCl2, 5 mM MgCl2, 125 mM NaCl, 0.002% NaN3, 1.0% BSA) at room temperature. The beads were spun down, washed once, resuspended in the binding buffer and transferred to a 96-well Isoplate (Wallac, Gaithersburg, Md.). 25 pM of [^125I] IP-10 with tested compounds in a series of titration were added to start the reaction. After 3 hr reaction at room temperature, the amount of [^125I] IP-10 bound to the SPA beads was determined with a Wallac 1450 Microbeta counter.
# The Ki values for the various example compounds of the present invention are given in the afore-mentioned Table 1. From these values, it would be apparent to the skilled artisan that the compounds of the invention have excellent utility CXCR3 antagonists.
row,IC50 [nM],SMILES
1,< 25,CC[C@H]1CN(c2nc(N)c(-c3nnco3)nc2Cl)CCN1C1CCN(Cc2ccc(Cl)cc2)CC1 [Compound 50]
2,< 25,CC[C@H]1CN(c2ncc(-c3nnc(C)[nH]3)nc2Cl)CCN1C1CCN(C(=O)c2ccc(Cl)cc2)CC1 [Compound 51]
3,< 25,CC[C@H]1CN(c2nc(N)c(-c3nnc(C4CC4)o3)nc2Cl)CCN1C1CCN(C(=O)c2ccc(Cl)nc2N)CC1 [Compound 52]
4,< 25,CC[C@H]1CN(c2ncc(-c3nnc(C)[nH]3)nc2C)CCN1C1CCN(C(=O)c2ccc(Cl)cc2)CC1 [Compound 53]
5,< 25,CC[C@H]1CN(c2nc(F)c(-c3nnc(C)o3)nc2Cl)CCN1C1CCN(C(=O)c2ccc(Cl)cc2)CC1 [Compound 54]
6,< 25,CC[C@H]1CN(c2nc(N)c(-c3nnc(C)o3)nc2Cl)CCN1C1CCN(Cc2ccc(Cl)cc2-c2nnn[nH]2)CC1 [Compound 55]
7,< 25,CC[C@H]1CN(c2nc(N)c(-c3nnc(N)o3)nc2Cl)CCN1C1CCN(C(=O)c2ccc(C#N)cc2)CC1 [Compound 56]
8,< 25,CC[C@H]1CN(c2nc(N)c(-c3nnc(C)o3)nc2Cl)CCN1C1CCN(C(=O)c2ccc(Cl)nc2)CC1 [Compound 57]
9,< 25,CC[C@H]1CN(c2nc(N)c(-c3nnc(C)o3)nc2Cl)CCN1C1CCN(Cc2ccc(Cl)cc2-c2nnn(C)n2)CC1 [Compound 58]
10,< 25,CC[C@H]1CN(c2nc(N)c(-c3nnc(C(F)(F)F)o3)nc2Cl)CCN1C1CCN(Cc2ccc(Cl)cc2)CC1 [Compound 59]
11,< 25,CCO/C=N\c1nc(N2CCN(C3CCN(Cc4ccc(Cl)cc4)CC3)[C@@H](CC)C2)c(Cl)nc1-c1nnco1 [Compound 60]
12,< 25,CC[C@H]1CN(c2nc(N)c(-c3nnc(C)o3)nc2Cl)CCN1C1CCN([C@@H](C(=O)OC)c2ccc(Cl)cc2)CC1 [Compound 61]
13,< 25,CC[C@H]1CN(c2nc(N)c(-c3nnc(C)o3)nc2Cl)CCN1C1CCN([C@H](CO)c2ccc(Cl)cc2)CC1 [Compound 62]
14,< 25,CC[C@H]1CN(c2ncc(-c3nnc(C)o3)nc2C)CCN1C1CCN(C(=O)c2ccc(F)c(F)c2)CC1 [Compound 63]
15,< 25,CC[C@H]1CN(c2ncc(-c3nnc(C)o3)nc2C)CCN1C1CCN(C(=O)c2ccc(C#N)cc2)CC1 [Compound 64]
16,< 25,CC[C@H]1CN(c2ncc(-c3nnc(C)o3)nc2C)CCN1C1CCN(C(=O)c2ccc(OC(F)(F)F)cc2)CC1 [Compound 65]
17,< 25,CC[C@H]1CN(c2ncc(-c3nnc(N)[nH]3)nc2Cl)CCN1C1CCN(C(=O)c2ccc(Cl)cc2)CC1 [Compound 66]
18,< 25,CC[C@H]1CN(c2nc(N)c(-c3nnc(C)o3)nc2Cl)CCN1C1CCN(C(=O)c2ccc(Cl)cc2O)CC1 [Compound 67]
19,< 25,CC[C@H]1CN(c2nc(N)c(-c3nnc(N)[nH]3)nc2Cl)CCN1C1CCN(C(=O)c2ccc(Cl)cc2)CC1 [Compound 68]
20,< 25,CC[C@H]1CN(c2nc(N)c(-c3nnc(CO)o3)nc2Cl)CCN1C1CCN([C@H](CO)c2ccc(Cl)cc2)CC1 [Compound 69]
21,< 25,CC[C@H]1CN(c2nc(N)c(-c3nnc(C(N)=O)o3)nc2Cl)CCN1C1CCN(C(=O)c2ccc(Cl)cc2)CC1 [Compound 70]
22,< 25,CC[C@H]1CN(c2nc(N)c(-c3nnc(N(C)C)o3)nc2Cl)CCN1C1CCN(C(=O)c2ccc(Cl)nc2N)CC1 [Compound 71]
23,< 25,CC[C@H]1CN(c2ncc(-c3nnc(N)o3)nc2C)CCN1C1CCN(C(=O)c2ccc(C(F)(F)F)cc2)CC1 [Compound 72]
24,25 to 100,CC[C@H]1CN(c2nc(N)c(-c3nnc(C(=O)NC4CC4)o3)nc2Cl)CCN1C1CCN(C(=O)c2ccc(Cl)nc2N)CC1 [Compound 73]

row,IC50 [nM],SMILES
1,25 to 100,CC[C@H]1CN(c2nc(N)c(-c3nnc(C)o3)nc2Cl)CCN1C1CCN(C(=O)c2ccc(Cl)cc2NC(=O)C(F)(F)F)CC1 [Compound 74]
2,25 to 100,CC[C@H]1CN(c2nc(N)c(-c3nnc(NCC(N)=O)o3)nc2Cl)CCN1C1CCN(C(=O)c2ccc(Cl)nc2N)CC1 [Compound 75]
3,25 to 100,CC[C@H]1CN(c2nc(N)c(-c3nnc(N)o3)nc2Cl)CCN1C1CCN(C(=O)c2ccc(OC(F)(F)F)cc2)CC1 [Compound 76]
4,25 to 100,CC[C@H]1CN(c2nc(N)c(-c3nnc(C(=O)NCC(F)(F)F)o3)nc2Cl)CCN1C1CCN(C(=O)c2ccc(Cl)cc2)CC1 [Compound 77]
5,25 to 100,CC[C@H]1CN(c2nc(N)c(-c3nnc(C(C)(C)O)o3)nc2Cl)CCN1C1CCN(C(=O)c2ccc(Cl)cc2)CC1 [Compound 78]
6,> 100,CC[C@H]1CN(c2nc(N)c(-c3nnc(OC)o3)nc2Cl)CCN1C1CCN(C(=O)c2ccc(Cl)nc2N)CC1 [Compound 79]
7,> 100,CC[C@H]1CN(c2nc(N)c(-c3nnc(C(F)(F)F)o3)nc2Cl)CCN1C1CCN(C(=O)c2ccc(Cl)cc2)CC1 [Compound 80]
8,> 100,CCOC(=O)c1nnc(-c2nc(Cl)c(N3CCN(C4CCN(C(=O)c5ccc(Cl)nc5N)CC4)[C@@H](CC)C3)nc2N)o1 [Compound 81]
9,> 100,CC[C@H]1CN(c2nc(N)c(-c3nnc(C)o3)nc2Cl)CCN1C1CCN(C(=O)c2cc(F)c(N)nc2Cl)CC1 [Compound 82]
10,> 100,CC[C@H]1CN(c2nc(N)c(-c3nnc(C)o3)nc2Cl)CCN1C1CCN([C@H](C(=O)OC)c2ccc(Cl)cc2)CC1 [Compound 83]
11,> 100,CC[C@H]1CN(c2nc(N)c(-c3nc(N)no3)nc2Cl)CCN1C1CCN(C(=O)c2ccc(Cl)nc2N)CC1 [Compound 84]
12,> 100,CC[C@H]1CN(c2nc(N)c(-c3nnc(CO)o3)nc2Cl)CCN1C1CCN([C@H](C(=O)OC)c2ccc(Cl)cc2)CC1 [Compound 85]
13,> 100,CC[C@H]1CN(c2nc(N)c(-c3n[nH]c(=S)n3C)nc2Cl)CCN1C1CCN(Cc2ccc(Cl)cc2)CC1 [Compound 86]
14,> 100,CC[C@H]1CN(c2nc(N)c(-c3n[nH]c(=O)o3)nc2Cl)CCN1C1CCN(Cc2ccc(Cl)cc2)CC1 [Compound 87]
15,> 100,CC[C@H]1CN(c2nc(N)c(-c3nnc(C(=O)NC4CC4)o3)nc2Cl)CCN1C1CCN(C(=O)c2ccc(Cl)cc2)CC1 [Compound 88]
16,> 100,CC[C@H]1CN(c2nc(O)c(-c3nnc(C)o3)nc2Cl)CCN1C1CCN(C(=O)c2ccc(Cl)cc2)CC1 [Compound 89]
17,> 100,CC[C@H]1CN(c2nc(NC(C)=O)c(-c3nnc(C)o3)nc2Cl)CCN1C1CCN(Cc2ccc(Cl)cc2)CC1 [Compound 90]
18,> 100,CCOC(=O)c1nnc(-c2nc(Cl)c(N3CCN(C4CCN(C(=O)c5ccc(Cl)cc5)CC4)[C@@H](CC)C3)nc2N)o1 [Compound 91]
19,> 100,CC[C@H]1CN(c2nc(N)c(-c3nnc(C)o3)nc2Cl)CCN1C1CCN(C(=O)c2ccc(Cl)cc2NS(C)(=O)=O)CC1 [Compound 92]
20,< 25,CCNc1nnc(-c2nc(Cl)c(N3C[C@H](CC)N(C4CCN(C(=O)c5ccc(Cl)nc5N)CC4)C[C@H]3C)nc2N)o1 [Compound 93]
21,> 100,CC[C@H]1CN(c2nc(N)c(-c3nnc(C)o3)nc2Cl)CCN1C1CCN(Cc2cnc(N)nc2)CC1 [Compound 95]
22,< 25,CCNc1nnc(-c2cnc(N3C[C@H](CC)N(C4CCN(C(=O)c5ccc(Cl)cc5)CC4)C[C@H]3C)c(C)n2)o1 [Compound 96]
23,< 25,CCNc1nnc(-c2cnc(N3C[C@H](CC)N(C4CCN(C(=O)c5ccc(Cl)nc5N)CC4)C[C@H]3C)c(C)n2)o1 [Compound 97]
